The test system of the series is CCRIS mutagenicity, Ames/micronucleus/aberration tests. In words: CCRIS mutagenicity studies.
[1] abbreviates: Test System: AMES SALMONELLA TYPHIMURIUM, Strain/Indicator: TA98, Metabolic Activation: NONE, Method: PREINCUBATION
Setting [2] is: Test System: AMES SALMONELLA TYPHIMURIUM, Strain/Indicator: TA100, Metabolic Activation: NONE, Method: PREINCUBATION

Activity calls are given as the source filed them. The rule behind the calls is not given here.

As to `CCC1(c2ccccc2)C(=O)NC(=O)NC1=O`, the mutagenic call is “inactive; negative” (Test System: AMES SALMONELLA TYPHIMURIUM, Strain/Indicator: TA97, Metabolic Activation: HAMSTER LIVER S-9, AROCLOR 1254 (10%), Method: PREINCUBATION); “inactive; negative” (Test System: AMES SALMONELLA TYPHIMURIUM, Strain/Indicator: TA97, Metabolic Activation: NONE, Method: PREINCUBATION); “inactive; negative” (Test System: AMES SALMONELLA TYPHIMURIUM, Strain/Indicator: TA97, Metabolic Activation: NONE, Method: STANDARD PLATE); “inactive; negative” (Test System: AMES SALMONELLA TYPHIMURIUM, Strain/Indicator: TA97, Metabolic Activation: RAT LIVER S-9, AROCLOR 1254 (10%), Method: PREINCUBATION); “inactive; negative” (Test System: AMES SALMONELLA TYPHIMURIUM, Strain/Indicator: TA97, Metabolic Activation: S-9, Method: STANDARD PLATE); “inactive; negative” (Test System: AMES SALMONELLA TYPHIMURIUM, Strain/Indicator: TA98, Metabolic Activation: HAMSTER LIVER S-9, AROCLOR 1254 (10%), Method: PREINCUBATION). Further, the mutagenic call by setting is: under setting [1], “inactive; negative”; (Test System: AMES SALMONELLA TYPHIMURIUM, Strain/Indicator: TA98, Metabolic Activation: NONE, Method: STANDARD PLATE) “inactive; negative”; (Test System: AMES SALMONELLA TYPHIMURIUM, Strain/Indicator: TA98, Metabolic Activation: RAT LIVER S-9, AROCLOR 1254 (10%), Method: PREINCUBATION) “inactive; negative”; (Test System: AMES SALMONELLA TYPHIMURIUM, Strain/Indicator: TA98, Metabolic Activation: RAT, LIVER, S-9, AROCLOR 1254, Method: STANDARD PLATE) “inactive; negative”; (Test System: AMES SALMONELLA TYPHIMURIUM, Strain/Indicator: TA98, Metabolic Activation: S-9, Method: STANDARD PLATE) “inactive; negative”; (Test System: AMES SALMONELLA TYPHIMURIUM, Strain/Indicator: TA100, Metabolic Activation: HAMSTER LIVER S-9, AROCLOR 1254 (10%), Method: PREINCUBATION) “inactive; negative”. Besides, the mutagenic call under setting [2] was “inactive; negative”; the mutagenic call (Test System: AMES SALMONELLA TYPHIMURIUM, Strain/Indicator: TA100, Metabolic Activation: NONE, Method: STANDARD PLATE) is “inactive; negative”; the mutagenic call (Test System: AMES SALMONELLA TYPHIMURIUM, Strain/Indicator: TA100, Metabolic Activation: RAT LIVER S-9, AROCLOR 1254 (10%), Method: PREINCUBATION) was “inactive; negative”; the mutagenic call (Test System: AMES SALMONELLA TYPHIMURIUM, Strain/Indicator: TA100, Metabolic Activation: RAT, LIVER, S-9, AROCLOR 1254, Method: STANDARD PLATE) was “inactive; negative”; the mutagenic call (Test System: AMES SALMONELLA TYPHIMURIUM, Strain/Indicator: TA100, Metabolic Activation: S-9, Method: STANDARD PLATE) is “inactive; negative”; the mutagenic call (Test System: AMES SALMONELLA TYPHIMURIUM, Strain/Indicator: TA102, Metabolic Activation: NONE, Method: STANDARD PLATE) was “inactive; negative”. For the same molecule, the mutagenic call is “inactive; negative” (Test System: AMES SALMONELLA TYPHIMURIUM, Strain/Indicator: TA102, Metabolic Activation: S-9, Method: STANDARD PLATE); “inactive; negative” (Test System: AMES SALMONELLA TYPHIMURIUM, Strain/Indicator: TA1535, Metabolic Activation: HAMSTER LIVER S-9, AROCLOR 1254 (10%), Method: PREINCUBATION); “active; positive” (Test System: AMES SALMONELLA TYPHIMURIUM, Strain/Indicator: TA1535, Metabolic Activation: NONE, Method: STANDARD PLATE); “inactive; negative” (Test System: AMES SALMONELLA TYPHIMURIUM, Strain/Indicator: TA1535, Metabolic Activation: RAT LIVER S-9, AROCLOR 1254 (5 OR 10%), Method: PREINCUBATION); “inactive; negative” (Test System: AMES SALMONELLA TYPHIMURIUM, Strain/Indicator: TA1535, Metabolic Activation: RAT, LIVER, S-9, AROCLOR 1254, Method: STANDARD PLATE); “inactive; negative” (Test System: AMES SALMONELLA TYPHIMURIUM, Strain/Indicator: TA1537, Metabolic Activation: NONE, Method: STANDARD PLATE). Besides, the mutagenic call reads like this: (Test System: AMES SALMONELLA TYPHIMURIUM, Strain/Indicator: TA1537, Metabolic Activation: RAT, LIVER, S-9, AROCLOR 1254, Method: STANDARD PLATE) “inactive; negative”; (Test System: AMES SALMONELLA TYPHIMURIUM, Strain/Indicator: TA1538, Metabolic Activation: NONE, Method: STANDARD PLATE) “inactive; negative”; (Test System: AMES SALMONELLA TYPHIMURIUM, Strain/Indicator: TA1538, Metabolic Activation: RAT, LIVER, S-9, AROCLOR 1254, Method: STANDARD PLATE) “inactive; negative”; (Test System: CHINESE HAMSTER V-79, Strain/Indicator: V-79/6-THIOGUANINE, Metabolic Activation: NONE, Method: REPLATING) “active; positive”; (Test System: MOUSE LYMPHOMA, Strain/Indicator: L5178Y (TK+/-)/TRIFLUROTHYMIDINE, Metabolic Activation: NONE, Method: SUSPENSION/PLATE) “inactive; negative”; (Test System: MOUSE LYMPHOMA, Strain/Indicator: L5178Y (TK+/TK-), Metabolic Activation: NONE, Method: SUSPENSION/PLATE) “inactive; negative”. Also, the mutagenic call (Test System: MOUSE LYMPHOMA, Strain/Indicator: L5178Y (TK+/TK-), Metabolic Activation: RAT, LIVER, S-9, AROCLOR 1254, Method: SUSPENSION/PLATE) was “active; positive”; the mutagenic call (Test System: MOUSE LYMPHOMA, Strain/Indicator: L5178Y (TK+/TK-), Metabolic Activation: RAT, LIVER, S-9, Method: SUSPENSION/PLATE) is “inactive; negative”; the mutagenic call (Test System: UDS RAT HEPATOCYTES, Strain/Indicator: BROMODEOXYURIDINE INCORP, Metabolic Activation: NONE, Method: FLOW CYTOMETRIC ANALYSIS) was “inactive; negative”; the mutagenic call (Test System: UDS RAT HEPATOCYTES, Strain/Indicator: THY INCORP, Metabolic Activation: NONE, Method: AUTORADIOGRAPHY) is “inactive; negative”; the mutagenic call (Test System: UDS RAT HEPATOCYTES, Strain/Indicator: THY INCORP, Metabolic Activation: NONE, Method: LIQUID SCINTILLATION COUNTING) was “inactive; negative”.
In the case of `O=C(O)Cc1ccc(Cl)cc1`, the mutagenic call is “inactive; negative” under setting [1]; “inactive; negative” (Test System: AMES SALMONELLA TYPHIMURIUM, Strain/Indicator: TA98, Metabolic Activation: RAT LIVER S-9, PCB, Method: PREINCUBATION); “inactive; negative” under setting [2]; “inactive; negative” (Test System: AMES SALMONELLA TYPHIMURIUM, Strain/Indicator: TA100, Metabolic Activation: RAT LIVER S-9, PCB, Method: PREINCUBATION); “inactive; negative” (Test System: AMES SALMONELLA TYPHIMURIUM, Strain/Indicator: TA104, Metabolic Activation: NONE, Method: PREINCUBATION); “inactive; negative” (Test System: AMES SALMONELLA TYPHIMURIUM, Strain/Indicator: TA104, Metabolic Activation: RAT LIVER S-9, PCB, Method: PREINCUBATION). The mutagenic call is “inactive; negative” (Test System: E.COLI, Strain/Indicator: WP2 UVRA, Metabolic Activation: NONE, Method: PREINCUBATION) and “inactive; negative” (Test System: E.COLI, Strain/Indicator: WP2 UVRA, Metabolic Activation: RAT LIVER S-9, PCB, Method: PREINCUBATION).

Values taken from PubChem BioAssay AID1259407 (Chemical Carcinogenesis Research Information System (CCRIS), 2018).
